Measured values taken from PMC12677843, “Multidisciplinary Preclinical Investigations on Ferrocenyl, Ruthenocenyl, and Benzyl Derivatives of Niridazole as New Drug Candidates against Schistosomiasis” (Chemmedchem, 2025).

Legend:
[1] = system: S. mansoni newly transformed schistosomula (NTS); test: In vitro evaluation on newly transformed schistosomula (NTS); type: cell-based, Schistosoma mansoni
Description: 2. Experimental section for biological experiments
Stock solutions of the test compounds
Stock solution of a concentration of 10 mM in pure DMSO (Sigma-Aldrich, Switzerland) were prepared of the 12 compounds, these stock solutions were used for all in vitro evaluations from activity tests in S. mansoni to the cytotoxic determinations in HUH7 hepatocyte-derived carcinoma cells, and in SH-SY5Y neuroblastoma cells.
The solutions were thoroughly vortexed and sonicated to enable a good dissolution of the compounds and homogenous stock solutions.
2.1 In vitro evaluations in S. mansoni
In vitro evaluation on newly transformed schistosomula (NTS)
To obtain newly transformed schistosomula (NTS) the lifecycle of S. mansoni (strain originates from West Africa, Liberia) is maintained at the Swiss Tropical and Public Health Institute (Swiss TPH). As previously described, cercariae are collected from infected Biomphalaria glabrata snails and then mechanically transformed into NTS. 8 After HBSS (Gibco, Waltham MA, USA) washing to get rid of the detached tails, the NTS were kept overnight (min. 12 h, max. 24 h) in culture medium at 37 °C and 5 % CO2 to complete their transformation process, before the drug sensitivity assay was started. The drug assays were performed in the same culture medium consisting of medium M199 (Gibco, Waltham MA, USA) supplemented with 5 % v/v inactivated fetal calf serum (iFCS; Bioconcept AG, Allschwil, Switzerland), 1% antibiotics mixture developed by Mäser et al., 9 and 1 % penicillin 10,000 U/mL, and streptomycin 10 mg/mL solution (Sigma-Aldrich, Buchs, Switzerland). The assay was performed in a 96-well plate, with 30−40 NTS per well in a final volume of 250 μL. NTS incubated in culture medium containing 0.5 % DMSO but no drug served as negative controls.
Microscopic evaluation was performed after 24, 48 and 72 h of incubation of the parasites at 37 °C and 5 % CO 2. Their overall viability was scored from 0 (death) to 3 (full viability) by a phenotypic screening method based on their motility, morphology, […]
and granularity. […]

SH-SY5Y cells = test: SYTOX cell viability assay, SH-SY5Y; type: cell-based, human; settings: 20 µM, 24 h, serum-free charcoal-treated medium, vs DMSO control (0.2%), mean
Description: The SYTOX cell viability assay was performed in SHSY5Y cells. Cells were treated with either compound (20 µM) or DMSO control (0.2%) for 24 h at 37 °C and 5% CO2 in serum‐free charcoal‐treated medium. Results were normalized to the DMSO control. Mean ± SD was calculated from three independent experiments, each performed in quadruplicate. […]
serum-free media containing either treatment at a concentration of 20 µM or DMSO (ITW Reagents Cat A3672) control (0.2 %).
Following 24 h of incubation, 12.5 μL of an XTT/phenazine methosulfate (PMS) (XTT Sigma Aldrich cat X4626, PMS Serva CAT: 3203) 0.02solution (1 mg/mL XTT and 7.5 μg/mL PMS) was added to each well. Absorbance was measured using a microplate reader (Biotek Synergy HT) at 450 nm (signal) and 650 nm (background), 2 h after the addition of the XTT/PMS solution. Individual backgrounds were subtracted and all results were normalized to DMSO control. Mean ± SD was determined from three independent experiments, each performed in quintuplicate.
SYTOX cell viability assay
The cytotoxic potential was additionally evaluated using the staining-based SYTOX viability assay. […] Data was acquired on the BioTeck Cytation5 microscope and evaluated by the manufacturer’s software (Gen5 Image Prime Version 3.12). […] Mean ± SD was determined from three independent experiments, each performed in quadruplicate. […]

Compound: O=C1NCCN1c1ncc([N+](=O)[O-])s1 [Niridazole, niridazole]
- EC50 ([1]; Schistosoma mansoni, 72 h incubation, 37 °C, 5% CO2): > 50 µM
- drug effect at 50 µM on S. mansoni NTS ([1]; highest tested concentration 50 µM): not impaired
- reduction of SH-SY5Y cell viability (SYTOX) (SH-SY5Y cells): no signs of toxicity
